Source: the NIST ThermoML archive (doi:10.1021/je034102r)
± gives the expanded uncertainty stated by the source.

Test: molar heat capacity at constant pressure
Details: 101.33 kPa, Liquid, heat bridge-scanning calorimeter

Measured: molar heat capacity at constant pressure

CCCCn1cc[n+](C)c1.F[P-](F)(F)(F)(F)F [1-butyl-3-methylimidazolium hexafluorophosphate]
491.92 ± 9.9 J/K/mol: 458.93 K | 459.07 K | 459.21 K
481.69 ± 9.7 J/K/mol: 431.89 K
481.4 ± 9.7 J/K/mol: 426.11 K | 431.75 K | 433.54 K
479.7 ± 9.7 J/K/mol: 426.54 K | 428.32 K | 428.85 K | 428.99 K | 429.56 K | 429.69 K
487.09 ± 9.7 J/K/mol: 445.99 K | 446.42 K | 446.55 K | 446.69 K | 447.51 K
496.18 ± 9.9 J/K/mol: 464.92 K
480.84 ± 9.7 J/K/mol: 425.97 K | 430.51 K | 432.29 K
488.51 ± 9.7 J/K/mol: 448.22 K | 450.3 K | 450.43 K | 450.87 K | 451.41 K | 451.55 K | 451.69 K
483.39 ± 9.7 J/K/mol: 436.03 K | 436.17 K | 436.71 K
477.99 ± 9.7 J/K/mol: 422.28 K | 422.69 K | 423.09 K | 424.2 K
474.87 ± 9.4 J/K/mol: 412.5 K | 416.55 K
482.54 ± 9.7 J/K/mol: 434.24 K | 434.37 K | 434.92 K | 435.05 K
480.55 ± 9.7 J/K/mol: 426.24 K | 429.96 K | 430.1 K | 430.23 K | 430.65 K | 430.78 K | 430.92 K | 431.48 K
485.95 ± 9.7 J/K/mol: 439.76 K | 440.03 K | 442.66 K | 442.8 K | 443.37 K | 443.51 K | 443.65 K | 443.78 K | 444.05 K | 444.32 K | 444.76 K | 444.9 K | 445.03 K
475.15 ± 9.4 J/K/mol: 410.22 K | 412.24 K | 412.77 K | 412.9 K | 416.42 K | 416.69 K | 416.82 K
494.48 ± 9.9 J/K/mol: 460.74 K | 464.35 K | 465.34 K
488.23 ± 9.7 J/K/mol: 448.35 K | 448.76 K | 450.57 K
474.3 ± 9.4 J/K/mol: 409.8 K | 410.48 K | 410.61 K | 410.88 K | 411.01 K | 413.45 K | 413.58 K | 413.71 K | 413.84 K | 414.24 K
486.24 ± 9.7 J/K/mol: 442.93 K | 443.07 K | 443.92 K | 444.19 K | 445.17 K
493.34 ± 9.9 J/K/mol: 459.76 K | 461.72 K | 462.53 K | 463.12 K | 463.53 K | 463.67 K
476.86 ± 9.7 J/K/mol: 417.65 K | 421.33 K | 421.46 K | 421.59 K
497.32 ± 9.9 J/K/mol: 464.79 K
489.65 ± 9.7 J/K/mol: 447.94 K | 452.8 K | 453.62 K | 453.92 K | 454.47 K | 454.61 K
492.49 ± 9.9 J/K/mol: 458.37 K | 458.66 K | 459.48 K | 460.06 K
490.21 ± 9.9 J/K/mol: 453.35 K | 455.86 K
492.77 ± 9.9 J/K/mol: 459.62 K | 460.19 K | 461.15 K | 461.28 K | 461.99 K | 462.4 K
477.43 ± 9.7 J/K/mol: 417.22 K | 421.19 K | 423.65 K
485.38 ± 9.7 J/K/mol: 437.83 K | 439.62 K
485.67 ± 9.7 J/K/mol: 439.89 K | 442.25 K
478.85 ± 9.7 J/K/mol: 424.61 K | 425.17 K | 425.3 K | 425.7 K | 427.62 K
495.05 ± 9.9 J/K/mol: 460.47 K | 465.47 K
474.58 ± 9.4 J/K/mol: 408.32 K | 409.93 K | 410.35 K | 410.74 K | 412.37 K | 412.63 K | 413.18 K | 413.31 K | 414.53 K
473.45 ± 9.4 J/K/mol: 408.74 K | 408.88 K | 409.01 K
490.78 ± 9.9 J/K/mol: 456.13 K | 456.28 K | 456.42 K | 456.56 K
475.44 ± 9.4 J/K/mol: 414.67 K | 415.73 K | 415.87 K | 416.15 K | 416.29 K | 418.6 K
485.1 ± 9.7 J/K/mol: 437.96 K | 438.1 K | 439.08 K | 440.32 K | 441.14 K | 441.85 K | 441.98 K | 442.12 K
487.66 ± 9.7 J/K/mol: 447.1 K | 447.23 K | 449.03 K
495.9 ± 9.9 J/K/mol: 465.61 K | 465.75 K
486.8 ± 9.7 J/K/mol: 445.3 K | 445.85 K
490.5 ± 9.9 J/K/mol: 452.94 K | 453.21 K | 455.59 K | 455.72 K | 456 K
494.76 ± 9.9 J/K/mol: 460.6 K | 465.2 K | 466.19 K
489.93 ± 9.7 J/K/mol: 453.48 K | 454.06 K | 454.2 K | 454.33 K | 454.74 K | 454.88 K | 455.02 K | 455.15 K | 455.29 K
479.13 ± 9.7 J/K/mol: 426.81 K | 427.35 K | 427.48 K | 427.75 K | 427.89 K | 428.18 K
496.47 ± 9.9 J/K/mol: 465.89 K
492.2 ± 9.9 J/K/mol: 458.23 K | 458.8 K | 459.35 K
480.27 ± 9.7 J/K/mol: 429.83 K | 431.21 K | 431.35 K
476.57 ± 9.7 J/K/mol: 415.2 K | 417.52 K | 417.8 K | 419.55 K | 419.69 K | 419.96 K | 420.09 K | 420.66 K | 421.73 K | 421.86 K
473.73 ± 9.4 J/K/mol: 408.61 K | 409.14 K | 409.53 K | 409.67 K | 411.27 K
483.96 ± 9.7 J/K/mol: 433.95 K | 436.57 K | 437.42 K | 438.37 K
487.37 ± 9.7 J/K/mol: 445.58 K | 445.71 K | 446.83 K | 447.37 K
475.72 ± 9.4 J/K/mol: 411.58 K | 411.71 K | 412.11 K | 415.6 K | 416.95 K | 418.2 K | 418.33 K | 418.46 K
483.11 ± 9.7 J/K/mol: 434.51 K | 434.65 K | 435.76 K | 435.9 K | 436.3 K | 436.99 K
491.07 ± 9.9 J/K/mol: 453.07 K | 456.69 K | 457.41 K | 457.54 K
478.56 ± 9.7 J/K/mol: 419.15 K | 422.42 K | 423.22 K | 424.47 K | 425.43 K
491.64 ± 9.9 J/K/mol: 457.68 K | 457.82 K | 457.95 K | 458.09 K
482.26 ± 9.7 J/K/mol: 435.19 K | 435.32 K
484.25 ± 9.7 J/K/mol: 433.81 K
477.71 ± 9.7 J/K/mol: 419.29 K | 422.82 K | 422.95 K | 423.52 K | 423.79 K | 423.92 K | 424.05 K
487.94 ± 9.7 J/K/mol: 446.96 K | 448.49 K | 448.62 K | 448.9 K | 449.17 K | 449.46 K | 449.6 K
484.82 ± 9.7 J/K/mol: 437.69 K | 438.94 K | 439.21 K | 439.35 K | 439.49 K | 440.46 K | 440.6 K | 440.73 K | 440.87 K | 441 K | 441.28 K | 441.71 K
478.28 ± 9.7 J/K/mol: 422.55 K | 424.34 K | 424.74 K | 424.87 K | 425.57 K
488.79 ± 9.7 J/K/mol: 449.74 K | 451.28 K | 452.67 K
474.02 ± 9.4 J/K/mol: 409.27 K | 409.4 K | 411.14 K | 413.97 K | 414.11 K
489.36 ± 9.7 J/K/mol: 448.08 K | 450.02 K | 451.96 K | 452.1 K
483.68 ± 9.7 J/K/mol: 436.44 K | 436.85 K | 437.29 K
482.83 ± 9.7 J/K/mol: 433.67 K | 434.78 K | 435.62 K
479.42 ± 9.7 J/K/mol: 425.84 K | 426.67 K | 426.94 K | 427.08 K | 427.21 K | 429.12 K | 429.26 K
491.35 ± 9.9 J/K/mol: 457 K | 457.13 K | 457.27 K
494.19 ± 9.9 J/K/mol: 460.33 K
493.62 ± 9.9 J/K/mol: 460.88 K | 463.39 K | 463.81 K | 463.94 K | 464.08 K | 464.22 K
476.01 ± 9.7 J/K/mol: 411.84 K | 411.97 K | 414.8 K | 415.33 K | 415.47 K | 417.08 K | 418.73 K
477.14 ± 9.7 J/K/mol: 418.86 K | 419.42 K | 420.52 K | 420.79 K | 420.92 K | 421.06 K | 422.15 K
486.52 ± 9.7 J/K/mol: 442.39 K | 442.53 K | 444.46 K | 445.44 K | 446.12 K
476.29 ± 9.7 J/K/mol: 414.93 K | 415.07 K | 417.93 K | 418.06 K | 419.82 K | 420.22 K
489.08 ± 9.7 J/K/mol: 447.81 K | 449.89 K | 450.16 K | 451 K | 451.14 K | 451.82 K | 452.23 K | 452.53 K
481.12 ± 9.7 J/K/mol: 430.37 K | 431.62 K | 432.02 K | 432.16 K | 432.59 K | 432.72 K | 432.86 K | 432.99 K | 433.13 K | 433.27 K | 433.4 K
484.53 ± 9.7 J/K/mol: 437.56 K | 438.24 K | 438.67 K | 438.81 K | 441.41 K
495.33 ± 9.9 J/K/mol: 464.49 K | 465.06 K
479.98 ± 9.7 J/K/mol: 428.45 K | 428.59 K | 428.72 K
493.06 ± 9.9 J/K/mol: 461.01 K | 461.42 K | 461.85 K | 462.12 K | 462.26 K | 462.67 K | 462.82 K | 463.26 K
